{
  "source": "patent US20040023987A1",
  "about": "“Sustained release compositions” (priority 2000, published 2004)",
  "assay": "Solubility in second solution of Japanese Pharmacopoeia (0.2 M phosphate buffer, pH approx. 6.8)",
  "format": "physicochemical",
  "protocol": "The term “solubility” used herein means concentration of drug in a supernatant which is obtained by centrifugal separation of unsolved agent, after shaking a mixture prepared by adding the agent to the second solution defined in Japanese Pharmacopoeia [0.2 M phosphate-buffer (pH approx. 6.8), for more than 30 minutes at room temperature (about 15 to about 25° C.) in a rate of more than 100 times per minutes using, for example, a Recipro shaker (model SR-I, Taiyo Scientific Industrial Co., Ltd.).",
  "data": [
    {"smiles": "CONC(=O)Nc1ccc(-c2sc3c(c2CN(C)Cc2ccccc2)c(=O)n(-c2ccccc2)c(=O)n3Cc2c(F)cccc2F)cc1", "note": "[Reference example 7, 5-(N-Benzyl-N-methylaminomethyl)-1-(2,6-difluorobenzyl)-6-[4-(3-methoxyureido)phenyl]-3-phenylthieno[2,3-d]pyrimidine-2,4 (1H,3H)-dione]", "values": [
      {"measurement": "water solubility (in words)", "result": "water-insoluble or slightly water-soluble"}
    ]}
  ]
}
